# Results from the NIST ThermoML archive (doi:10.1016/j.jct.2005.10.004).
# Where “and” joins values, the source holds several entries; their conditions need not be identical. Identical values can stand only once. ± gives the expanded uncertainty stated by the source.
# Test: xn = mol fraction of the nth substance listed
# Conditions: Gas, Buoyancy - hydrostatic balance with magnetic suspension - one sinker
smiles,measurement,setting,value
N#N [nitrogen] + C,mass density,"240 K, 2107.5 kPa, x2 = 0.8998",19.5904 ± 0.0063 kg/m3 and 19.5908 ± 0.0063 kg/m3
same,mass density,"240 K, 4055.5 kPa, x2 = 0.8998",40.6283 ± 0.01 kg/m3
same,mass density,"240 K, 8017.2 kPa, x2 = 0.8",96.5565 ± 0.023 kg/m3
same,mass density,"240 K, 8864.8 kPa, x2 = 0.8",109.578 ± 0.025 kg/m3
same,mass density,"240 K, 12048 kPa, x2 = 0.8",159.33 ± 0.036 kg/m3
same,mass density,"240 K, 13511 kPa, x2 = 0.8998",181.648 ± 0.041 kg/m3
same,mass density,"240.01 K, 1951.7 kPa, x2 = 0.8",19.1493 ± 0.0062 kg/m3 and 19.149 ± 0.0062 kg/m3
same,mass density,"240.01 K, 3991.5 kPa, x2 = 0.8",41.8987 ± 0.011 kg/m3
same,mass density,"240.01 K, 3991.7 kPa, x2 = 0.8",41.901 ± 0.011 kg/m3
same,mass density,"240.01 K, 6011.9 kPa, x2 = 0.8",67.6707 ± 0.016 kg/m3
same,mass density,"240.01 K, 6012.2 kPa, x2 = 0.8",67.6768 ± 0.016 kg/m3
same,mass density,"240.01 K, 7076 kPa, x2 = 0.8",82.6152 ± 0.019 kg/m3
same,mass density,"240.01 K, 8017.6 kPa, x2 = 0.8",96.5609 ± 0.023 kg/m3
same,mass density,"240.01 K, 8026.3 kPa, x2 = 0.8998",94.9591 ± 0.023 kg/m3
same,mass density,"240.01 K, 10028 kPa, x2 = 0.8998",127.626 ± 0.03 kg/m3
same,mass density,"240.01 K, 10029 kPa, x2 = 0.8998",127.633 ± 0.03 kg/m3
same,mass density,"240.01 K, 10372 kPa, x2 = 0.8",133.317 ± 0.031 kg/m3 and 133.315 ± 0.031 kg/m3
same,mass density,"240.01 K, 12048 kPa, x2 = 0.8",159.332 ± 0.036 kg/m3
same,mass density,"240.01 K, 12090 kPa, x2 = 0.8998",160.982 ± 0.037 kg/m3
same,mass density,"240.01 K, 13638 kPa, x2 = 0.8",182.319 ± 0.041 kg/m3
same,mass density,"240.01 K, 15026 kPa, x2 = 0.8998",200.798 ± 0.046 kg/m3
same,mass density,"240.02 K, 6035.6 kPa, x2 = 0.8998",65.6527 ± 0.016 kg/m3
same,mass density,"249.91 K, 2443.9 kPa, x2 = 0.8",23.1504 ± 0.0066 kg/m3
same,mass density,"249.91 K, 2444.1 kPa, x2 = 0.8",23.1522 ± 0.0066 kg/m3
same,mass density,"249.91 K, 2444.9 kPa, x2 = 0.8",23.1598 ± 0.0066 kg/m3
same,mass density,"249.91 K, 5015.8 kPa, x2 = 0.8",51.0598 ± 0.012 kg/m3
same,mass density,"249.91 K, 5016 kPa, x2 = 0.8",51.0618 ± 0.012 kg/m3
same,mass density,"249.91 K, 7570.5 kPa, x2 = 0.8",82.6548 ± 0.019 kg/m3
same,mass density,"249.92 K, 7570.8 kPa, x2 = 0.8",82.6605 ± 0.019 kg/m3
same,mass density,"249.92 K, 8909.9 kPa, x2 = 0.8",100.551 ± 0.023 kg/m3
same,mass density,"249.92 K, 8910.5 kPa, x2 = 0.8",100.56 ± 0.023 kg/m3
same,mass density,"249.92 K, 8911 kPa, x2 = 0.8",100.565 ± 0.023 kg/m3
same,mass density,"249.93 K, 10917 kPa, x2 = 0.8",128.204 ± 0.03 kg/m3
same,mass density,"249.93 K, 12900 kPa, x2 = 0.8",155.107 ± 0.035 kg/m3
same,mass density,"249.93 K, 12901 kPa, x2 = 0.8",155.123 ± 0.035 kg/m3
same,mass density,"249.93 K, 14257 kPa, x2 = 0.8",172.455 ± 0.039 kg/m3
same,mass density,"249.93 K, 14258 kPa, x2 = 0.8",172.479 ± 0.039 kg/m3
same,mass density,"249.93 K, 16938 kPa, x2 = 0.8",202.973 ± 0.046 kg/m3
same,mass density,"249.93 K, 16952 kPa, x2 = 0.8",203.124 ± 0.046 kg/m3
same,mass density,"249.94 K, 9596 kPa, x2 = 0.8",109.925 ± 0.025 kg/m3
same,mass density,"249.94 K, 10910 kPa, x2 = 0.8",128.101 ± 0.03 kg/m3
same,mass density,"249.99 K, 2003.4 kPa, x2 = 0.8998",17.6409 ± 0.0061 kg/m3
same,mass density,"249.99 K, 2056.7 kPa, x2 = 0.8",19.2703 ± 0.0062 kg/m3
same,mass density,"249.99 K, 3994.1 kPa, x2 = 0.8998",37.4833 ± 0.0094 kg/m3
same,mass density,"249.99 K, 3994.2 kPa, x2 = 0.8998",37.4837 ± 0.0094 kg/m3
same,mass density,"249.99 K, 4008 kPa, x2 = 0.8",39.6397 ± 0.0098 kg/m3
same,mass density,"249.99 K, 6005.8 kPa, x2 = 0.8998",60.2899 ± 0.015 kg/m3
same,mass density,"249.99 K, 6017.6 kPa, x2 = 0.8",62.9683 ± 0.016 kg/m3
same,mass density,"249.99 K, 7544.1 kPa, x2 = 0.8",82.2685 ± 0.019 kg/m3
same,mass density,"249.99 K, 7544.6 kPa, x2 = 0.8",82.2725 ± 0.019 kg/m3
same,mass density,"249.99 K, 8074.6 kPa, x2 = 0.8998",86.7809 ± 0.021 kg/m3
same,mass density,"249.99 K, 8074.9 kPa, x2 = 0.8998",86.7846 ± 0.021 kg/m3
same,mass density,"249.99 K, 8075.1 kPa, x2 = 0.8998",86.7862 ± 0.021 kg/m3
same,mass density,"249.99 K, 10120 kPa, x2 = 0.8998",115.3 ± 0.027 kg/m3
same,mass density,"249.99 K, 10121 kPa, x2 = 0.8",117.092 ± 0.028 kg/m3
same,mass density,"249.99 K, 12763 kPa, x2 = 0.8998",152.294 ± 0.035 kg/m3
same,mass density,"249.99 K, 13368 kPa, x2 = 0.8",161.09 ± 0.037 kg/m3
same,mass density,"249.99 K, 13369 kPa, x2 = 0.8",161.093 ± 0.037 kg/m3
same,mass density,"250 K, 1972.2 kPa, x2 = 0.8998",17.3493 ± 0.0061 kg/m3
same,mass density,"250 K, 2229 kPa, x2 = 0.8998",19.7632 ± 0.0062 kg/m3
same,mass density,"250 K, 12762 kPa, x2 = 0.8998",152.28 ± 0.035 kg/m3 and 152.282 ± 0.035 kg/m3
same,mass density,"250 K, 15168 kPa, x2 = 0.8998",182.264 ± 0.041 kg/m3
same,mass density,"250 K, 18609 kPa, x2 = 0.8998",216.303 ± 0.049 kg/m3
same,mass density,"274.8 K, 11276 kPa, x2 = 0.8",109.07 ± 0.026 kg/m3
same,mass density,"274.81 K, 2552.2 kPa, x2 = 0.8",21.5902 ± 0.0064 kg/m3
same,mass density,"274.81 K, 2552.3 kPa, x2 = 0.8",21.5893 ± 0.0064 kg/m3
same,mass density,"274.81 K, 5055.3 kPa, x2 = 0.8",44.7483 ± 0.011 kg/m3
same,mass density,"274.81 K, 5055.4 kPa, x2 = 0.8",44.7496 ± 0.011 kg/m3
same,mass density,"274.81 K, 7550.3 kPa, x2 = 0.8",69.666 ± 0.017 kg/m3 and 69.6651 ± 0.017 kg/m3
same,mass density,"274.81 K, 7562.1 kPa, x2 = 0.8",69.788 ± 0.017 kg/m3
same,mass density,"274.81 K, 7562.6 kPa, x2 = 0.8",69.7929 ± 0.017 kg/m3
same,mass density,"274.81 K, 9501.7 kPa, x2 = 0.8",90.1191 ± 0.022 kg/m3
same,mass density,"274.81 K, 9502.3 kPa, x2 = 0.8",90.1254 ± 0.022 kg/m3
same,mass density,"274.81 K, 10330 kPa, x2 = 0.8",98.956 ± 0.024 kg/m3
same,mass density,"274.81 K, 10337 kPa, x2 = 0.8",99.0305 ± 0.024 kg/m3
same,mass density,"274.81 K, 11275 kPa, x2 = 0.8",109.063 ± 0.026 kg/m3
same,mass density,"274.81 K, 12889 kPa, x2 = 0.8",126.201 ± 0.029 kg/m3
same,mass density,"274.81 K, 12890 kPa, x2 = 0.8",126.206 ± 0.029 kg/m3
same,mass density,"274.81 K, 14325 kPa, x2 = 0.8",141.105 ± 0.034 kg/m3
same,mass density,"274.81 K, 14327 kPa, x2 = 0.8",141.128 ± 0.034 kg/m3
same,mass density,"274.81 K, 15731 kPa, x2 = 0.8",155.191 ± 0.036 kg/m3
same,mass density,"274.81 K, 15733 kPa, x2 = 0.8",155.216 ± 0.036 kg/m3
same,mass density,"274.81 K, 16797 kPa, x2 = 0.8",165.435 ± 0.039 kg/m3
same,mass density,"274.81 K, 16816 kPa, x2 = 0.8",165.609 ± 0.039 kg/m3
same,mass density,"274.82 K, 8425.3 kPa, x2 = 0.8",78.7622 ± 0.019 kg/m3
same,mass density,"274.82 K, 9439.5 kPa, x2 = 0.8",89.4646 ± 0.022 kg/m3
same,mass density,"274.82 K, 11275 kPa, x2 = 0.8",109.065 ± 0.026 kg/m3
same,mass density,"274.82 K, 11277 kPa, x2 = 0.8",109.088 ± 0.026 kg/m3
same,mass density,"274.82 K, 12811 kPa, x2 = 0.8",125.374 ± 0.03 kg/m3
same,mass density,"274.99 K, 2012.7 kPa, x2 = 0.8",16.8448 ± 0.0062 kg/m3
same,mass density,"274.99 K, 2211 kPa, x2 = 0.8998",17.4645 ± 0.0059 kg/m3
same,mass density,"274.99 K, 4076.7 kPa, x2 = 0.8",35.4308 ± 0.009 kg/m3
same,mass density,"274.99 K, 6021.2 kPa, x2 = 0.8",54.1463 ± 0.013 kg/m3
same,mass density,"274.99 K, 6055.4 kPa, x2 = 0.8998",51.8525 ± 0.013 kg/m3
same,mass density,"274.99 K, 8019.2 kPa, x2 = 0.8",74.4425 ± 0.018 kg/m3
same,mass density,"274.99 K, 10017 kPa, x2 = 0.8",95.4954 ± 0.025 kg/m3
same,mass density,"274.99 K, 11989 kPa, x2 = 0.8",116.514 ± 0.027 kg/m3 and 116.518 ± 0.027 kg/m3
same,mass density,"274.99 K, 14080 kPa, x2 = 0.8",138.416 ± 0.033 kg/m3
same,mass density,"274.99 K, 15091 kPa, x2 = 0.8998",145.151 ± 0.035 kg/m3
same,mass density,"274.99 K, 15497 kPa, x2 = 0.8",152.681 ± 0.036 kg/m3
same,mass density,"274.99 K, 16131 kPa, x2 = 0.8",158.862 ± 0.037 kg/m3 and 158.861 ± 0.037 kg/m3
same,mass density,"274.99 K, 16805 kPa, x2 = 0.8998",161.533 ± 0.037 kg/m3 and 161.536 ± 0.037 kg/m3
same,mass density,"274.99 K, 17724 kPa, x2 = 0.8998",169.816 ± 0.04 kg/m3
same,mass density,"274.99 K, 17726 kPa, x2 = 0.8998",169.823 ± 0.04 kg/m3
same,mass density,"275 K, 2005.1 kPa, x2 = 0.8998",15.7688 ± 0.0058 kg/m3
same,mass density,"275 K, 4053.8 kPa, x2 = 0.8998",33.2951 ± 0.0085 kg/m3
same,mass density,"275 K, 6055.4 kPa, x2 = 0.8998",51.8523 ± 0.013 kg/m3
same,mass density,"275 K, 8023.2 kPa, x2 = 0.8998",71.384 ± 0.017 kg/m3
same,mass density,"275 K, 10028 kPa, x2 = 0.8998",92.2879 ± 0.022 kg/m3
same,mass density,"275 K, 11444 kPa, x2 = 0.8998",107.355 ± 0.027 kg/m3
same,mass density,"275 K, 13322 kPa, x2 = 0.8998",127.156 ± 0.029 kg/m3
same,mass density,"299.91 K, 2564.5 kPa, x2 = 0.8",19.5987 ± 0.0061 kg/m3 and 19.5993 ± 0.0061 kg/m3
same,mass density,"299.91 K, 4995 kPa, x2 = 0.8",39.306 ± 0.0097 kg/m3
